In patent US5298511A, “Alkanoic acid derivatives” (Imperial Chemical Industries PLC, priority 1991, dated 1994):
pIC50: −log10 of the molar value.

Target: T1, 5-LO (Homo sapiens, UniProt P09917)
T1 construct: incubating a test compound with heparinised human blood, prior to challenge with the calcium ionophore A23187; endogenous in cells; host or cells: blood cells in heparinised human whole blood, challenged with A23187
T1 sequence (P09917 1-674): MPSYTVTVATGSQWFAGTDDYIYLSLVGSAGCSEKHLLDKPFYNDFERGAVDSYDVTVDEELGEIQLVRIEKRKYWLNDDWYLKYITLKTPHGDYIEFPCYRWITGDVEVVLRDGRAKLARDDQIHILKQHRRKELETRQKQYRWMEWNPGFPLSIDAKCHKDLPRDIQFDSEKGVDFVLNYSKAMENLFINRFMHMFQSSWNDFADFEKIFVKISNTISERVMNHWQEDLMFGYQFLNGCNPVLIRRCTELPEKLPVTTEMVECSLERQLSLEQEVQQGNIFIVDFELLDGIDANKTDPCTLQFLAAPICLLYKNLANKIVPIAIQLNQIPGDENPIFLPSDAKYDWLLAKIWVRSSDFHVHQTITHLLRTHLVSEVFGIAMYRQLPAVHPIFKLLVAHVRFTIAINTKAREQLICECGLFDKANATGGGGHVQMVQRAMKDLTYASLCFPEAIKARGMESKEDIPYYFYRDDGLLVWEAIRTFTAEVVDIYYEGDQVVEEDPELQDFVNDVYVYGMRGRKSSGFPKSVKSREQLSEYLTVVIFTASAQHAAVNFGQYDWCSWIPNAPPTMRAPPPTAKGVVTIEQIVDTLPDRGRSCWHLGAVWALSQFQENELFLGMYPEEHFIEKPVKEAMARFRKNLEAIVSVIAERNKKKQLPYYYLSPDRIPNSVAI
Assay: test a) in vitro heparinised human blood challenged with calcium ionophore A23187; LTB4 by radioimmunoassay
Type: cell-based
Experimental: a) An in vitro assay system involving incubating a test compound with heparinised human blood, prior to challenge with the calcium ionophore A23187 and then indirectly measuring the inhibitory effects on 5-LO by assaying the amount of LTB4 using specific radioimmunoassays described by Carey and Forder (F. Carey and R. A. Forder, Prostaglandins, Leukotrienes Med., 1986, 22, 57; Prostaglandins, 1984, 28, 666; Brit. J. Pharmacol. 1985, 84, 34 P) which involve the use of a protein-LTB4 conjugate produced using the procedure of Young et alia (Prostaglandins, 1983, 26(4), 605-613). The effects of a test compound on the enzyme cyclooxygenase (which is involved in the alternative metabolic pathway for arachidonic acid and gives rise to prostaglandins, thromboxanes and related metabolites) may be measured at the same time using the specific radioimmunoassay for thromboxane B2 (TxB2) described by Carey and Forder (see above). This test provides an indication of the effects of a test compound against 5-LO and also cyclooxygenase in the presence of blood cells and proteins. It permits the selectivity of the inhibitory effect on 5-LO or cyclooxygenase to be assessed.

pIC50: 6.70
SMILES: CCOC(=O)C(CC)(CC)c1cccc(OCc2ccc3ccccc3c2)c1 [Example 1, ethyl 2-ethyl-2-[3-(naphth-2-ylmethoxy)phenyl]butyrate]
